Results reported in patent publication US10017535B2, “Amphiphilic compounds with neuroprotective properties” (USTAV ORGANICKE CHEMIE A BIOCHEMIE AV CR, v.v.i., priority 2014, dated 2018).
Counter-ions that a name gives are not always drawn. Like-named read-outs stand apart in the source and are kept apart here.

What was measured:
[1] = target: T1, NR1-1a/NR2B NMDA receptor (Rattus norvegicus, UniProt P35439+Q00960); assay: Patch-clamp inhibition of glutamate-evoked currents at recombinant NMDA receptors in transfected HEK293 cells; assay type: cell-based; conditions: for inhibition at 10 µM: HEK293, read-out: Mean % change ± SD; for Mean % change ± SD: 1 mmol·l^−1 glutamate, −60 mV
T1 construct: expressed in transfected cells; host or cells: HEK293 cells (ATCC CRL1573)
Procedure: Transfected cells were identified by means of fluorescent green protein (GFP) fluorescence. Its genus was transfected together with the both receptor subunit genes.
Steroid-containing solutions were prepared from fresh solution (20 mmol·l^−1, of steroid dissolved in dimethyl sulfoxide, DMSO), which was added to the extracellular solution containing 1 mmol·l^−1 glutamic acid and 10 μmol·l^−1 of glycine. Identical concentrations of DMSO were added to all other extracellular solutions.
Current responses produced by extracellular application of glutamic acid solution (1 mmol·l^−1) were measured from the whole cell by patch-clamp technique, which is used for the study of transport of charged particles through model and also natural biological membranes. The currents were measured at membrane potential maintained at −60 mV and +60 mV.
Same amounts (0.3 μg) of cDNA coding NR1, NR2 and GFP (green fluorescent protein) (pQBI 25, Takara, Japan) were mixed with 0.9 μl of Matra-A Reagent (IBA, Göttingen, Germany) and added to confluent HEK293 cells cultivated in v 24-pit cultivating plate. After trypsination, the cells were re-suspended in Opti-MEM® I containing 1% fetal bovine serum. Subsequently, 20 mmol·l^−1 MgCl2, 1 mmol l^−1 D,L-2-amino-5-phosphonopentanoic acid, 3 mmol·l^−1 kynurenic acid was added to the mixture and cells were inoculated on the polylysine-coated glass plates having 25 mm in diameter. The following genes coding NMDA receptor subunits were used for transfection: NR1-1 a (GenBank accession No. U08261) and NR2B (GenBank accession No. M91562).
HEK293 Cultured cells were used for electrophysiological investigations with a latency of 16-40 h after transfection. Whole-cell currents were measured by patch-clamp amplifier (Axopatch 1D; Axon Instruments, Inc. Foster City, USA) after capacitance and serial resistance (<10 MΩ) compensation to 80-90%. Agonist-induced responses were filtered to 1 kHz (8-pole Bessel filter; Frequency Devices, Haverhill, USA), digitized with sampling frequency of 5 kHz and analyzed by pClamp version 9 software (Axon Instruments, USA). […] Extracellular solution (ECS) contained 160 mmol·l^−1 sodium chloride, 2.5 mmol·l^−1 potassium chloride, 10 mmol·l^−1 HEPES, 10 mmol·l^−1 glucose, 0.2 mmol·l^−1 EDTA a 0.7 mmol·l^−1 calcium chloride (pH adjusted to 7.3 by sodium hydroxide solution). Glycine was added to both testing and control solution. Moreover, bicuculline (10 μmol·l^−1) and tetrodotoxin (0.5 μmol·l^−1) was added to hippocampal cultures. Steroid-containing solutions were prepared from fresh solution (20 mmol·l^−1) of steroid dissolved in dimethyl sulfoxide (DMSO). Same concentrations of DMSO were used in all extracellular solutions. Control and experimental solutions were applied via microprocessor-controlled perfusion system with approx. rate of solution exchange in areas adjacent to cells reaching ˜10 ms.
Current responses produced by 100 μmol·l^−1 of NMDA (in the case of hipocampal neurones), or by 1 mmol·l^−1 of glutamate (on recombinant NMDA receptors) were measured at membrane potential maintained at −60 mV. […] Relative effect of steroid-induced inhibition was used for calculating IC50.

[2] = test system: laboratory mice, strain CD-1; assay: Open field test (locomotor activity, sedative effect); assay type: in vivo; conditions: for overall pathway in open field: 0.3 mg/kg, 50 minutes
Procedure: In the Experimental Part 1 were used adults (30-35 g) male laboratory mice, strain CD-1 from Velaz facility, Czech Republic. Mice were housed in plastic boxes with a 12-hour light cycle (lights on at 7:00 pm). Mice had free access to food and water.
Amphiphilic steroid compounds were dissolved in a solution of 3 g (2-hydroxypropyl)-β-cyclodextrin (CDX, Sigma-Aldrich) and 157 mg of citric acid ([…], Sigma-Aldrich) in 30 ml of distilled water, the pH was adjusted to 7.4 using sodium hydroxide (NaOH, Sigma-Aldrich). Thus there were prepared solutions of the four steroids for application rates of 0.1, 1, 10 and 100 mg/kg.
The efficacy of the studied compounds was compared to known NMDA antagonist is memantine (Sigma-Aldrich) at a dose of 5 mg/kg in rats, ketamine (Vétoquinol) at 10 mg/kg and dizocilpine (MK-801) (Sigma-Aldrich) at a dose of 0.3 mg/kg in mice. These three compounds were dissolved in saline (B Braun).
The substances at dose 0.1-100 mg/kg were administered before the test to mice intraperitoneally. As controls were used intact mice and mice that received CDX solution. Also, MK-801 (0.3 mg/kg) was used for comparison of effects of noncompetitive antagonist of NMDA receptors. From the experiment was evaluated overall track anywhere in the arena as an indicator of locomotor activity. In addition, it was judged a ten-minute segments track during each experiment. Based on these values, it was possible to determine the latency time of onset of action and changes in locomotor activity over time.
In this arrangement, the sedative effect of the studied compounds at the highest dose was evaluated. […] Over time was monitored locomotor activity and possible changes characterized by tremor, ataxia, restlessness, or sedation or general anesthesia (absence of response to stimuli, decreased muscle tone).

[3] = calculated from relative steroid-induced inhibition, Hill's coefficient 1.2, read-out: IC50
[4] = steroid concentration 10 μmol·l^−1
[5] = steroid concentration 3 μmol·l^−1

T1 sequence (Q00960 27-1482, other chains not shown): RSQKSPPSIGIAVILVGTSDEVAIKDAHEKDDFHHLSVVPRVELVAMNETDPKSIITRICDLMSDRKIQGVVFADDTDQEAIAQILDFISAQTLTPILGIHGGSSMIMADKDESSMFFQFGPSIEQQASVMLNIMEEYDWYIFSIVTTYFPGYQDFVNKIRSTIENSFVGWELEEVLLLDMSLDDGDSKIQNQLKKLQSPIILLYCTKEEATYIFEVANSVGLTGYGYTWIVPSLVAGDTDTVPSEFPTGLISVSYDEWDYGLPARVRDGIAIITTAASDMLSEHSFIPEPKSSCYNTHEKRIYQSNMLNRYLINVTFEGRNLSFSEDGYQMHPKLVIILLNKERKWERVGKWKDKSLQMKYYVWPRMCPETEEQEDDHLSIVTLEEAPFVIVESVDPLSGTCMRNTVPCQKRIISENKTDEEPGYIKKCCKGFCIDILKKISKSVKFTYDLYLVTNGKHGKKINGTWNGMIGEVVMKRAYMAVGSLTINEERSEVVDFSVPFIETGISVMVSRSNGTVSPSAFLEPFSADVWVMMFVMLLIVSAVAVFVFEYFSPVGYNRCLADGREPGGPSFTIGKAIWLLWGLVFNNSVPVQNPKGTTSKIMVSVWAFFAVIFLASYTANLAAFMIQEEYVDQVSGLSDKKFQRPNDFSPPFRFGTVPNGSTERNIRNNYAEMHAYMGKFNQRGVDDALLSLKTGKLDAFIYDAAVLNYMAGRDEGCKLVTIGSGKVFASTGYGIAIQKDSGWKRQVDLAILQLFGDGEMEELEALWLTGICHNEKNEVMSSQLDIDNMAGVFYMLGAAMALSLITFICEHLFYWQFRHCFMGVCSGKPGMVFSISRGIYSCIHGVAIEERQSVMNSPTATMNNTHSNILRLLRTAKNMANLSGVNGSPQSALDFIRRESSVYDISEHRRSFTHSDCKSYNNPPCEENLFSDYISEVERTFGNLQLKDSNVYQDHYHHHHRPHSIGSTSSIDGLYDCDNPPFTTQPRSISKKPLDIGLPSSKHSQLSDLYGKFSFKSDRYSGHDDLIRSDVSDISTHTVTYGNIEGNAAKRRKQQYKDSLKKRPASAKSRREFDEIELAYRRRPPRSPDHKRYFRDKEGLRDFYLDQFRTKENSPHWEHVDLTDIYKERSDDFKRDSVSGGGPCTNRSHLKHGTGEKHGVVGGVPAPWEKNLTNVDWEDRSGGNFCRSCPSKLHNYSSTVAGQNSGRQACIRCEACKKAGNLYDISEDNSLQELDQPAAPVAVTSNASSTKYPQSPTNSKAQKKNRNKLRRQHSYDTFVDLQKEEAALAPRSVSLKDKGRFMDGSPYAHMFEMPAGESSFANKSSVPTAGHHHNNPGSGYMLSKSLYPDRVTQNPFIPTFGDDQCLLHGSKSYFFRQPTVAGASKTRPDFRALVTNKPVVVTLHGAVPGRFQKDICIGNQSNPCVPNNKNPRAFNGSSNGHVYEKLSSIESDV

Compound: C=C1C[C@H]2[C@@H]3CC[C@@H]4C[C@H](OC(=O)CCC(=O)O)CC[C@]4(C)[C@H]3CC[C@]2(C)C1
- melting point: 165 to 165.7 °C

Compound: C[C@@]12CCC[C@H]1[C@@H]1CC[C@@H]3C[C@H](OC(=O)[C@@H](N)CCCNC(=N)N)CC[C@]3(C)[C@H]1CC2.Cl.Cl
- melting point: 238 to 240 °C

Compound: C=C1CC[C@H]2[C@@H]3CC[C@@H]4C[C@H](OC(=O)CCCCC(=O)O)CC[C@]4(C)[C@H]3CC[C@]12C
- melting point: 100 to 102 °C

Compound: C[C@H]1CC[C@H]2[C@@H]3CC[C@@H]4C[C@H](OC(=O)CC(=O)O)CC[C@]4(C)[C@H]3CC[C@]12C
- melting point: 158 to 161.2 °C

Compound: C[C@H]1CC[C@H]2[C@@H]3CC[C@@H]4C[C@H](OC(=O)CCC(=O)O)CC[C@]4(C)[C@H]3CC[C@]12C
- melting point: 141 to 142 °C

Compound: C=C(C)[C@H]1CC[C@H]2[C@@H]3CC[C@@H]4C[C@H](OC(=O)CCC(=O)O)CC[C@]4(C)[C@H]3CC[C@]12C
- melting point: 148 to 149.5 °C

Compound: C[C@@]12CCC[C@H]1[C@@H]1CC[C@@H]3C[C@H](OC(=O)CCC[N+](C)(C)C)CC[C@]3(C)[C@H]1CC2 (as salt: chloride) [Compound 62, 4-(((3R,5R,8S,9S,10S,13S,14S)-10,13-Dimethylhexadecahydro-1H-cyclopenta[a]-phenanthren-3-yl)oxy)-N,N,N-trimethyl-4-oxobutan-1-ammonium chloride]
- melting point: 225 to 227 °C

Compound: C=C1CC[C@H]2[C@@H]3CC[C@@H]4C[C@H](OC(=O)C[N+](C)(C)C)CC[C@]4(C)[C@H]3CC[C@]12C (as salt: chloride) [Compound 76, 2-(((3R,5R,8R,9S,10S,13S,14S)-10,13-Dimethyl-17-methylenehexadecahydro-1H-cyclopenta[a]phenanthren-3-yl)oxy)-N,N,N-trimethyl-2-oxoethan-1-ammonium chloride]
- melting point: 175 to 177 °C

Compound: COC(=O)C1(C)CCC2C(CCC3CC(OS(=O)(=O)O)CCC32C)C1C (as salt: salt) [Compound 22, Pyridinium (2R,4aS,7S,8S,10aR)-7-(methoxycarbonyl)-4a,7,8-trimethyltetra-decahydrophenanthren-2-yl 2-sulfate]
- melting point: 145 to 147 °C

Compound: C[C@@H]1CC[C@H]2[C@@H](CC[C@@H]3C[C@H](OS(=O)(=O)O)CC[C@@]32C)C1 (as salt: salt) [Compound 35, Pyridinium (2R,4aS,4bS,7R,8aS,10aR)-4a,7-dimethyltetradecahydrophenanthren-2-yl 2-sulfate]
- melting point: 147 to 149 °C

Compound: C[C@@]12CCC[C@H]1[C@@H]1CC[C@@H]3C[C@H](N4CC(C(=O)O)CC4=O)CC[C@]3(C)[C@H]1CC2 (stereo partly drawn) [Compound 131, 1-((3R,5R,8S,9S,10S,13S,14S)-10,13-Dimethylhexadecahydro-1H-cyclopenta[a]phenanthren-3-yl)-5-oxopyrrolidine-3-carboxylic acid]
- inhibition at 10 µM [1]: 34.7 ± 7.2%
- IC50 [1, 3]: 17700 nM

Compound: C/C=C1/CC[C@H]2[C@@H]3CC[C@@H]4C[C@H](NC(=O)CC(=O)O)CC[C@]4(C)[C@H]3CC[C@]12C [Compound 155, 3-(((3R,5R,8R,9S,10S,13S,14S,Z)-17-Ethylidene-10,13-dimethylhexadecahydro-1H-cyclopenta[a]phenanthren-3-yl)amino)-3-oxopropanoic acid]
- IC50 [1]: 8700 nM
- inhibition at 10 µM [1]: 54.4 ± 5%

Compound: C[C@]12N[C@H](Cc3ccccc31)c1ccccc12 [dizocilpine, reference compound]
- overall pathway in open field ([2]; vs CDX control group): significant increases
- overall pathway in open field ([2]; vs intact animals (p=0.0653)): tendency to increasement
- time course of locomotor activity ([2]; dizocilpine 0.3 mg/kg, ten-minute sections): gradual increase
- total locomotor activity ([2]; dizocilpine 0.3 mg/kg, vs two control groups): significantly higher

Compound: Pyridinium (2S,4aR,4bR,8aS,10aS)-4a-methyltetradecahydrophenanthren-2-yl 2-sulfate [Compound 128]
- IC50 [1, 3]: 36300 nM
- Mean % change ± SD ([1]; steroid concentration 50 μmol·l^−1): 58.0 ± 2.0%

Compound: Pyridinium (3R,5R,8R,9R,10S,13S,14S)-13-methylhexadecahydro-1H-cyclopenta[a]phenanthren-3-yl 3-sulfate [Compound 126]
- IC50 [1, 3]: 5400 nM
- Mean % change ± SD [1, 4]: 68.3 ± 7.4%

Compound: Pyridinium (3R,5R,8R,9S,10S,13R,14S,17R)-17-((R)-sec-butyl)-10,13-dimethylhexadecahydro-1H-cyclopenta[a]phenanthren-3-yl 3-sulfate [Compound 123]
- IC50 [1, 3]: 11700 nM
- Mean % change ± SD [1, 4]: 46.2 ± 2.3%

Compound: Pyridinium (3R,5R,8R,9S,10S,13R,14S,17R)-17-isopropyl-10,13-dimethylhexadecahydro-1H-cyclopenta[a]phenanthren-3-yl 3-sulfate [Compound 122]
- IC50 [1, 3]: 2000 nM
- Mean % change ± SD [1, 5]: 59.6 ± 18.8%

Compound: Pyridinium (3R,5R,8R,9S,10S,13S,14S)-10,13-dimethyl-17-methylenehexadecahydro-1H-cyclopenta[a]phenanthren-3-yl 3-sulfate [Compound 116]
- IC50 [1, 3]: 1400 nM
- Mean % change ± SD [1, 5]: 68.3 ± 4.3%

Compound: Pyridinium (3R,5R,8R,9S,10S,13S,14S,17R)-10,13-dimethyl-17-(prop-1-en-2-yl)hexadecahydro-1H-cyclopenta[a]phenanthren-3-yl 3-sulfate [Compound 121]
- IC50 [1, 3]: 400 nM
- Mean % change ± SD ([1]; steroid concentration 1 μmol·l^−1): 71.7 ± 8.0%

Compound: Pyridinium (3R,5R,8S,9S,10S,13R,14R,17S)-10,17-dimethylhexadecahydro-1H-cyclopenta[a]phenanthren-3-yl 3-sulfate [Compound 119]
- IC50 [1, 3]: 700 nM
- Mean % change ± SD [1, 5]: 81.1 ± 2.1%

Compound: Pyridinium (3R,5R,8S,9S,10S,13R,14S,17S)-10,13,17-trimethylhexadecahydro-1H-cyclopenta[a]phenanthren-3-yl 3-sulfate [Compound 117]
- IC50 [1, 3]: 1100 nM
- Mean % change ± SD [1, 5]: 73.1 ± 6.7%

Compound: Pyridinium (3R,5R,8S,9S,10S,13R,14S,17S)-17-ethyl-10,13-dimethylhexadecahydro-1H-cyclopenta[a]phenanthren-3-yl 3-sulfate [Compound 120]
- IC50 [1, 3]: 500 nM

Compound: Pyridinium (3R,5R,8S,9S,10S,13S,14R,17R)-10,17-dimethylhexadecahydro-1H-cyclopenta[a]phenanthren-3-yl 3-sulfate [Compound 118]
- IC50 [1, 3]: 1500 nM
- Mean % change ± SD [1, 5]: 68.0 ± 7.8%
